Laboratory results reported in patent USRE48335E1, “Polymyxin derivatives as antimicrobial compounds” (priority 2014, dated 2020).
In brackets after ≈: the same amount, converted by molar mass. Positions of bridges follow the written chain, without caps; N, C: chain ends. Non-standard residues stand in square brackets, D forms with d. Residues, ends and D or L forms follow the SMILES beside them. *: point of attachment. Lauroyl = CCCCCCCCCCCC(=O)*; Decanoyl = CCCCCCCCCC(=O)*; Octanoyl = CCCCCCCC(=O)*; Orn = NCCC[C@H](N)C(=O)O; Dab = NCC[C@H](N)C(=O)O; Dap = NC[C@H](N)C(=O)O

Tests used:
[1] = tested on: Acinetobacter baumannii
Protocol: (§1) MICs of the lipopeptides (trifluoroacetic acid salt, TFA) were determined by broth microdilution in cation-adjusted Mueller-Hinton broth (CAMHB) (Oxoid Australia, Thebarton, SA, Australia) according to Clinical and Laboratory Standards Institute standards (Clinical and Laboratory Standards Institute. Performance standards for antimicrobial susceptibility testing; eighteenth informational supplement M100-S18. Wayne, Pa., 2008). Polymyxin B (sulphate) was employed as control. […]

[2] = tested on: Enterobacter cloacae
Protocol: as §1

[3] = tested on: Pseudomonas aeruginosa
Protocol: as §1

Row | SMILES | Minimum inhibitory concentration, Ab A ATCC 17978 [1] [µg/mL] | Minimum inhibitory concentration, Ab ATCC 19606 [1] [µg/mL] | Minimum inhibitory concentration, Ab FADDI-AB034 [1] [µg/mL] | Minimum inhibitory concentration, Ec FADDI-EC001 [2] [µg/mL] | Minimum inhibitory concentration, Ec FADDI-EC003 [2] [µg/mL] | Minimum inhibitory concentration, Ec FADDI-EC006 [2] [µg/mL] | Minimum inhibitory concentration, Pa ATCC 27853 [3] [µg/mL] | Minimum inhibitory concentration, Pa FADDI-PA022 [3] [µg/mL] | Minimum inhibitory concentration, Pa FADDI-PA025 [3] [µg/mL]
1 | CCCCCCCCCCCC(=O)N[C@@H](CCN)C(=O)N[C@H](C(=O)N[C@@H](CCN)C(=O)N[C@H]1CCNC(=O)[C@H]([C@@H](C)O)NC(=O)[C@H](CCN)NC(=O)[C@H](CCN)NC(=O)[C@H]([C@@H](C)O)NC(=O)[C@@H](CC(C)C)NC(=O)[C@H](CCN)NC1=O)[C@@H](C)O [Compound 28] (Lauroyl-[Dab]T[Dab][Dab][Dab][dL]T[Dab][Dab]T; lactam 4-C) | 2 (≈ 1.67 µM) | 2 (≈ 1.67 µM) | 1 (≈ 0.834 µM) | 0.5 (≈ 0.417 µM) | 0.5 (≈ 0.417 µM) | 0.5 (≈ 0.417 µM) | 2 (≈ 1.67 µM) | 4 (≈ 3.33 µM) | 4 (≈ 3.33 µM)
2 | CCCCCCCC(=O)N[C@@H](CN)C(=O)N[C@H](C(=O)N[C@@H](CCN)C(=O)N[C@H]1CCNC(=O)[C@H]([C@@H](C)O)NC(=O)[C@H](CCN)NC(=O)[C@H](CCN)NC(=O)[C@H]([C@@H](C)O)NC(=O)[C@@H](CC(C)C)NC(=O)[C@H](CCN)NC1=O)[C@@H](C)O [Compound 31] (Octanoyl-[Dap]T[Dab][Dab][Dab][dL]T[Dab][Dab]T; lactam 4-C) | 4 (≈ 3.54 µM) | 4 (≈ 3.54 µM) | 2 (≈ 1.77 µM) | <0.125 | 0.25 (≈ 0.221 µM) | 0.5 (≈ 0.443 µM) | 0.5 (≈ 0.443 µM) | 0.5 (≈ 0.443 µM) | 16 (≈ 14.2 µM)
3 | CCCCCCCC(=O)N[C@@H](CCCN)C(=O)N[C@H](C(=O)N[C@@H](CCN)C(=O)N[C@H]1CCNC(=O)[C@H]([C@@H](C)O)NC(=O)[C@H](CCN)NC(=O)[C@H](CCN)NC(=O)[C@H]([C@@H](C)O)NC(=O)[C@@H](CC(C)C)NC(=O)[C@H](CCN)NC1=O)[C@@H](C)O [Compound 32] (Octanoyl-[Orn]T[Dab][Dab][Dab][dL]T[Dab][Dab]T; lactam 4-C) | >32 | >32 | >32 | 1 (≈ 0.864 µM) | 1 (≈ 0.864 µM) | >32 | >32 | 1 (≈ 0.864 µM) | >32
4 | CCCCCCCC(=O)N[C@@H](CCN)C(=O)N[C@H](C(=O)N[C@@H](CCCN)C(=O)N[C@H]1CCNC(=O)[C@H]([C@@H](C)O)NC(=O)[C@H](CCN)NC(=O)[C@H](CCN)NC(=O)[C@H]([C@@H](C)O)NC(=O)[C@@H](CC(C)C)NC(=O)[C@H](CCN)NC1=O)[C@@H](C)O [Compound 34] (Octanoyl-[Dab]T[Orn][Dab][Dab][dL]T[Dab][Dab]T; lactam 4-C) | 2 (≈ 1.73 µM) | 2 (≈ 1.73 µM) | 2 (≈ 1.73 µM) | <0.125 | <0.125 | 4 (≈ 3.46 µM) | 1 (≈ 0.864 µM) | 0.5 (≈ 0.432 µM) | >32
5 | CCCCCCCC(=O)N[C@@H](CCN)C(=O)N[C@H](C(=O)N[C@@H](CN)C(=O)N[C@H]1CCNC(=O)[C@H]([C@@H](C)O)NC(=O)[C@H](CCN)NC(=O)[C@H](CCN)NC(=O)[C@H](C(C)C)NC(=O)[C@@H](CC(C)C)NC(=O)[C@H](CCN)NC1=O)[C@@H](C)O [Compound 36] (Octanoyl-[Dab]T[Dap][Dab][Dab][dL]V[Dab][Dab]T; lactam 4-C) | 0.5 (≈ 0.443 µM) | 0.25 (≈ 0.222 µM) | 0.5 (≈ 0.443 µM) | 0.25 (≈ 0.222 µM) | <0.125 | 0.25 (≈ 0.222 µM) | 1 (≈ 0.887 µM) | 1 (≈ 0.887 µM) | 4 (≈ 3.55 µM)
6 | CCCCCCCCCC(=O)N[C@@H](CCN)C(=O)N[C@H](C(=O)N[C@@H](CN)C(=O)N[C@H]1CCNC(=O)[C@H]([C@@H](C)O)NC(=O)[C@H](CCN)NC(=O)[C@H](CCN)NC(=O)[C@H]([C@@H](C)O)NC(=O)[C@@H](CC(C)C)NC(=O)[C@H](CCN)NC1=O)[C@@H](C)O [Compound 37] (Decanoyl-[Dab]T[Dap][Dab][Dab][dL]T[Dab][Dab]T; lactam 4-C) | 0.5 (≈ 0.432 µM) | 0.25 (≈ 0.216 µM) | 0.25 (≈ 0.216 µM) | 0.5 (≈ 0.432 µM) | 4 (≈ 3.46 µM) | 0.5 (≈ 0.432 µM) | 1 (≈ 0.864 µM) | 0.5 (≈ 0.432 µM) | 2 (≈ 1.73 µM)
7 | CCCCCCCCCC(=O)N[C@@H](CCN)C(=O)N[C@H](C(=O)N[C@@H](CN)C(=O)N[C@H]1CCNC(=O)[C@H]([C@@H](C)O)NC(=O)[C@H](CCN)NC(=O)[C@H](CCN)NC(=O)[C@H](C)NC(=O)[C@@H](CC(C)C)NC(=O)[C@H](CCN)NC1=O)[C@@H](C)O [Compound 38] (Decanoyl-[Dab]T[Dap][Dab][Dab][dL]A[Dab][Dab]T; lactam 4-C) | 0.5 (≈ 0.443 µM) | 0.5 (≈ 0.443 µM) | 1 (≈ 0.887 µM) | 0.5 (≈ 0.443 µM) | 0.5 (≈ 0.443 µM) | 1 (≈ 0.887 µM) | 1 (≈ 0.887 µM) | 2 (≈ 1.77 µM) | 2 (≈ 1.77 µM)
